Our source for the Ki and IC50 values is patent US9845308B2, “Isoindoline inhibitors of ROR-gamma” (Vitae Pharmaceuticals, Inc., priority 2014, dated 2017).

In assay [1] the target is recombinant RORγ Ligand Binding Domain (LBD) protein (Homo sapiens (Human), UniProt P51449). Nature of the assay: Radio-Ligand RORγ Binding Assay (Assay 1). Particulars: competition with 25-hydroxy[26,27-3H]-cholesterol, SPA; read-out: RORγ Binding Ki Range* (nM) (Assay 1). The procedure:
Radio-Ligand RORγ Binding Assay (Assay 1)
Compounds of the present invention were tested for ability to bind to RORγ in a cell-free competition assay with commercially available radio-ligand (RL), 25-hydroxy[26,27-^3H]-cholesterol (PerkinElmer, Cat. #NET674250UC), for a ligand binding site on a recombinant RORγ Ligand Binding Domain (LBD) protein expressed as a 6×His-Glutathione-S-Transferase (GST) fusion. […] The plate was shaken at 700 rpm for 20 min and incubated for 10 min at rt, after which 40 μL of poly-Lys YSi SPA beads (PerkinElmer, Cat. #RPNQ0010) were added to achieve 50 μg of the beads per well. The plate was incubated on an orbital shaker for 20 min and then for 10 min without agitation at rt. SPA signal for tritium beta radiation was registered on PerkinElmer Microbeta plate reader. […] The percent inhibition vs. concentration data were fit into a four-parameter model, and IC50 values were calculated from the fit as the concentrations corresponding to the inflection points on the dose-response curves. […]

Assay [2] addresses full-length RORγt in Jurkat cells (Homo sapiens (Human), UniProt P51449). Nature of the assay: RORγt 5×RORE Assay in Jurkat Cells (Assay 2). It counts as cell-based. Particulars: 5xRORE secreted Nanoluc luciferase reporter, 16-18 hrs, read-out: RORγt5X IC50 Range* (nM) (Assay 2). Here is the method: [formula] RORγt 5×RORE Assay in Jurkat Cells (Assay 2)
Compounds of the present invention were tested for RORγ inverse agonist activity in a cell-based, transcriptional activity assay. […] (Promega, Cat. #N1021) using KpnI and HindIII restriction sites. […] Tested compounds were added to the cells in the same media (final concentration of DMSO was 0.1% (v/v)), and the plates were incubated at 37° C./5% CO2 for 16-18 hrs. Luciferase activity in the conditioned supernatants was determined with NanoGlo® assay reagents (Promega, Cat.#N1130).
(In a reporter assay the amount or activity of a reporter protein is the signal.)

recombinant RORγ Ligand Binding Domain (LBD) protein, sequence (P51449 269-508): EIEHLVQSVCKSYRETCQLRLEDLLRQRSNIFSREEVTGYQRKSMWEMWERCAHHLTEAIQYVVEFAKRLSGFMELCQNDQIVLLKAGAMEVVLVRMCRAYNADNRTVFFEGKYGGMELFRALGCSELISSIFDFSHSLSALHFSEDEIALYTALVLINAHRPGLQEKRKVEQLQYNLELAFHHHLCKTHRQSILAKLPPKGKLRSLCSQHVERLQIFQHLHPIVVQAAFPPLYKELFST
full-length RORγt in Jurkat cells, sequence (P51449 other isoform, or with tags, fused parts or gaps): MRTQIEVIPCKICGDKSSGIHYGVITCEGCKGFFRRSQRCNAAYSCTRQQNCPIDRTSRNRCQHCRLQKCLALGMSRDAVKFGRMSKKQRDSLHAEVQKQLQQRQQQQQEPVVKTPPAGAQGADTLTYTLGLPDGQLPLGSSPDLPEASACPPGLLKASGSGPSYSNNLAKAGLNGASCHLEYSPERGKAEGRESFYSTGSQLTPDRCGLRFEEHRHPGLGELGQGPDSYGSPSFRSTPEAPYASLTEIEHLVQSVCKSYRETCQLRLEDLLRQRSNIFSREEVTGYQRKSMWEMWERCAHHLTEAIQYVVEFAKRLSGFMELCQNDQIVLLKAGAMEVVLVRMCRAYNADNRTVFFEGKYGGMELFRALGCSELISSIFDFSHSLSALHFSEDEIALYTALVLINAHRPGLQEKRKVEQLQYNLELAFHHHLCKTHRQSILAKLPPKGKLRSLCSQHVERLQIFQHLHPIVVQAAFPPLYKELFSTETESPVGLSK

What is called Ki is the equilibrium dissociation constant of an inhibitor or competing ligand from its target. What is called IC50 is the midpoint of a concentration-inhibition curve. For the compound `CCS(=O)(=O)c1ccc([C@@H](CO)NC(=O)c2ccc3c(c2)CN(C[C@H]2CC[C@H](C(F)(F)F)CC2)[C@H]3C(C)C)cc1` [Compound 3c], in assay [1], the inhibition constant (Ki) was under 100 nM. The IC50 in assay [2] is under 100 nM.
Turning to `CCS(=O)(=O)c1ccc([C@@H](CO)NC(=O)c2ccc3c(c2)CN(C[C@H]2CC[C@H](C(F)(F)F)CC2)[C@@H]3C(C)C)cc1` [Compound 3d], the Ki in assay [1] is under 100 nM. In addition, the 50% inhibitory concentration (IC50) in assay [2] was over 1000 nM.
On the same counts, the results for `CC(C)[C@H]1c2ccc(C(=O)NCC3CCN(S(C)(=O)=O)CC3)cc2CN1C[C@H]1CC[C@H](C(F)(F)F)CC1` [Compound 4a] are under 100 nM and under 100 nM.
On the same counts, the results for `CCS(=O)(=O)c1ccc([C@H](CCO)NC(=O)c2ccc3c(c2)CN(C[C@H]2CC[C@H](C(F)(F)F)CC2)[C@H]3C(C)C)cc1` [Compound 6a] are under 100 nM and under 100 nM.
On the same counts, the results for `CCS(=O)(=O)c1ccc([C@H](CCO)NC(=O)c2ccc3c(c2)CN(C[C@H]2CC[C@H](C(F)(F)F)CC2)[C@@H]3C(C)C)cc1` [Compound 6b] are under 100 nM and 100 to 1000 nM.
Take `CC[C@H]1c2ccc(C(=O)NCc3ccc(S(=O)(=O)NC)cc3)cc2CN1C[C@H]1CC[C@H](C(F)(F)F)CC1` [Compound 22]: the Ki in assay [1] was under 100 nM. In assay [2], the IC50 was under 100 nM.
Regarding `CC[C@H]1c2ccc(C(=O)NCc3ccc(S(=O)(=O)NC)cn3)cc2CN1C[C@H]1CC[C@H](C(F)(F)F)CC1` [Compound 23a], in assay [1], the Ki is under 100 nM. The IC50 in assay [2] is under 100 nM.
Turning to `CC[C@@H]1c2ccc(C(=O)NCc3ccc(S(=O)(=O)NC)cn3)cc2CN1C[C@H]1CC[C@H](C(F)(F)F)CC1` [Compound 23b], the Ki in assay [1] is under 100 nM. In addition, the IC50 in assay [2] lay within 100 to 1000 nM.
On the same counts, the results for `CCS(=O)(=O)c1ccc(CNC(=O)c2ccc3c(c2)C(=O)N(Cc2ccc(C(F)(F)F)cc2)C3C(C)C)nc1` (centres unmarked) [Compound 27] are under 100 nM and 100 to 1000 nM.
On the same counts, the results for `CCS(=O)(=O)c1ccc([C@H](CO)NC(=O)c2ccc3c(c2)C(=O)N(Cc2ccc(C(F)(F)F)cc2)C3C(C)C)cc1` (some centres unmarked) [Compound 28] are under 100 nM and under 100 nM.
